Structures can show the parent of a compound that is named as a salt.
Test system: coughing induced by citric acid
Experiment: Effect on guinea pig coughing models induced by citric acid
Format: in vivo
Conditions: s.c.; for antitussive effect (number of coughs): Comparative Example 1; for effects for suppressing coughs in comparison to the cough number of the pathosis-induced group: Example 3, 0.1 mg/kg, p<0.05 t-Test
Excerpt: The fact that the morphinan derivatives having the nitrogen-containing cyclic substituent, represented by Formula (I) and the pharmaceutically acceptable acid addition salts thereof are effective for the therapy of coughing may be confirmed by showing inhibitory action against coughing of a guinea pig, which coughing has been induced by administering citric acid to the guinea pig. The inhibitory action against the coughing induced by citric acid administration may be confirmed by the method described in the Examples, but the method is not restricted thereto.
A solution of test substance, a solution of positive control substance (codeine phosphate) or the administration solvent was subcutaneously administered to 6 week-old Hartley guinea pigs at a volume of 0.1 mL/100 g. After leaving the guinea pigs to stand for 25 minutes, they were retained in acrylic chambers for cough detection and the chambers were set to a measurement equipment. Thirty minutes after the subcutaneous administration of the test substance, the nebulizer was turned on and 100 mM citric acid solution, a cough inducer, was atomized and sprayed to the face of each guinea pig for a period of 15 minutes (velocity: 50 mm/min). A minipolygraph was used for recording, and the respiratory waveform within the period of 15 minutes was recorded. A signal when a large and acute change of flow rate compared to the respiratory waveform occurred independently was considered as a cough, and marked on the recording sheet. The marking was conducted while recording the respiratory waveform. When a large and continuous amplitude arose by struggling, the amplitude was distinguished by noting that it was caused by struggling. Since some coughings cause just before, and/or between struggling, the recording sheet and the motion of the guinea pig were observed as simultaneously as possible.

O=C1c2ccccc2C(=O)N1[C@@H]1CC[C@@]2(O)[C@H]3Cc4ccc(O)c5c4[C@@]2(CCN3CC2CC2)[C@H]1O5 [Compound 1, N-(17-cyclopropylmethyl-4,5α-epoxy-3,14-dihydroxy-morphinan-6β-yl)-phthalimide]
effect for suppressing coughs in comparison to the cough number of the pathosis-induced group (Example 1, 1 mg/kg, 100 mM citric acid spray 30 min after dosing, p<0.01, n=7): approximately 94%
effect for suppressing coughs in comparison to the cough number of the pathosis-induced group (Example 2, 0.003 mg/kg, p<0.025 1 tailed-Shirley-Williams-Test, n=3): approximately 50%

Oc1ccc2c3c1O[C@H]1[C@H](N4CCCC4)CC[C@@]4(O)[C@@H](C2)N(CC2CC2)CC[C@]314 [Compound 2, 17-cyclopropylmethyl-4,5α-epoxy-6β-(pyrrolidine-1-yl)-morphinan-3,14-diol.tartaric acid salt]
antitussive effect (number of coughs) (10 mg/kg): no antitussive effect was observed

O=C1C2=C(CCCC2)C(=O)N1[C@@H]1CC[C@@]2(O)[C@H]3Cc4ccc(O)c5c4[C@@]2(CCN3CC2CC2)[C@H]1O5 [Compound 3, N-(17-cyclopropylmethyl-4,5α-epoxy-3,14-dihydroxy-morphinan-6β-yl)-3,4,5,6-tetrahydrophthalimide.tartaric acid salt]
effects for suppressing coughs in comparison to the cough number of the pathosis-induced group (n=3): approximately 29%

O=C1c2ccccc2CN1[C@@H]1CC[C@@]2(O)[C@H]3Cc4ccc(O)c5c4[C@@]2(CCN3CC2CC2)[C@H]1O5 [Compound 4, 2-(7-cyclopropylmethyl-4,5α-epoxy-3,14-dihydroxy-morphinan-6β-yl)-2,3-dihydro-isoindol-1-one-tartaric acid salt]
effects for suppressing coughs in comparison to the cough number of the pathosis-induced group (n=3): ~25%

O=C1c2ccccc2S(=O)(=O)N1[C@@H]1CC[C@@]2(O)[C@H]3Cc4ccc(O)c5c4[C@@]2(CCN3CC2CC2)[C@H]1O5 [Compound 5, N-(17-cyclopropylmethyl-4,5α-epoxy-3,14-dihydroxy-morphinan-6β-yl)-O-sulfonbenzoic acid imide-tartaric acid salt]
effects for suppressing coughs in comparison to the cough number of the pathosis-induced group (n=3): ~28%

O=C1C=CC(=O)N1[C@@H]1CC[C@@]2(O)[C@H]3Cc4ccc(O)c5c4[C@@]2(CCN3CC2CC2)[C@H]1O5 [Compound 6, N-(17-cyclopropylmethyl-4,5α-epoxy-3,14-dihydroxy-morphinan-6β-yl)-maleimide-tartaric acid salt]
antitussive effect (number of coughs) (1 mg/kg): no antitussive effect was observed

COc1ccc2c3c1O[C@H]1[C@@H](O)C=C[C@H]4[C@@H](C2)N(C)CC[C@@]341 [codeine phosphate, reference compound]
effect for suppressing coughs (Example 1, 10 mg/kg, 100 mM citric acid spray 30 min after dosing, vs pathosis-induced group, p<0.05, n=7): approximately 51%
effect for suppressing coughs (Example 2, 10 mg/kg, p<0.05 Welch-Test, n=3): approximately 37%

— patent publication US8106065B2, “Antitussive agent” (Toray Industries, Inc., priority 2005, dated 2012)
